Test results: PubChem BioAssay AID2060508 (Molecular Pharmacology Branch, DTP, NCI, 2025)
pIC50: −log10 of the molar value.

Test system: 454973-116-R2-J3-PDC spheroids, viability, % test/control
Assay: Anticancer human tumor 454973-116-R2-J3-PDC patient-derived pancreatic carcinoma cell line growth inhibition [GQUAD]
Details: spheroids with HUVEC and MSC; for pIC50: curve of first compound; for viability, T/C: stronger effect = lower value
Outline: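 Tumor cells were grown as complex spheroids with HUVEC endothelial cells and mesenchymal stem cells as stroma. G-quadruplex stabilizers were combined with targeted agents over half-log dilutions from near the clinical Cmax, or from 10 microM.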

[1] = second compound 0.0316 µM, first compound 0.0316 µM
[2] = second compound 0.0316 µM, first compound 0.316 µM
[3] = second compound 0.1 µM, first compound 0.0316 µM
[4] = second compound 0.1 µM, first compound 0.316 µM
[5] = second compound 0.316 µM, first compound 0.0316 µM
[6] = second compound 0.316 µM, first compound 0.316 µM
[7] = second compound 1 µM, first compound 0.0316 µM
[8] = second compound 1 µM, first compound 0.316 µM
[9] = second compound 3.16 µM, first compound 0.0316 µM
[10] = second compound 3.16 µM, first compound 0.316 µM
[11] = second compound 10 µM, first compound 0.0316 µM
[12] = second compound 10 µM, first compound 0.316 µM
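Also: spheroids exposed to compounds for seven days.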
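For viability, T/C in this document: 100% = DMSO vehicle control viability.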

Cn1ncnc1[C@H]1c2n[nH]c(=O)c3cc(F)cc(c23)N[C@@H]1c1ccc(F)cc1 + Cc1[nH]c2ccc(F)cc2c1-c1nc2c3cccnc3c3ncccc3c2[nH]1
pIC50 (second compound 0.0316 µM): < 6.50 | pIC50 (second compound 0.1 µM): < 6.50 | pIC50 (second compound 0.316 µM): < 6.50 | pIC50 (second compound 1 µM): < 6.50 | pIC50 (second compound 3.16 µM): < 6.50 | pIC50 (second compound 10 µM): < 6.50 | viability, T/C (second compound 0.0316 µM, first compound 0.000999 µM): 115% | viability, T/C (second compound 0.0316 µM, first compound 0.00316 µM): 95.3% | viability, T/C (second compound 0.0316 µM, first compound 0.00999 µM): 101% | viability, T/C [1]: 87.7% | viability, T/C (second compound 0.0316 µM, first compound 0.0999 µM): 97.4% | viability, T/C [2]: 84% | viability, T/C (second compound 0.1 µM, first compound 0.000999 µM): 93.6% | viability, T/C (second compound 0.1 µM, first compound 0.00316 µM): 97.6% | viability, T/C (second compound 0.1 µM, first compound 0.00999 µM): 94.4% | viability, T/C [3]: 104% | viability, T/C (second compound 0.1 µM, first compound 0.0999 µM): 86.1% | viability, T/C [4]: 77.6% | viability, T/C (second compound 0.316 µM, first compound 0.000999 µM): 101% | viability, T/C (second compound 0.316 µM, first compound 0.00316 µM): 99.6% | viability, T/C (second compound 0.316 µM, first compound 0.00999 µM): 91.9% | viability, T/C [5]: 92.7% | viability, T/C (second compound 0.316 µM, first compound 0.0999 µM): 90.7% | viability, T/C [6]: 83.8% | viability, T/C (second compound 1 µM, first compound 0.000999 µM): 107% | viability, T/C (second compound 1 µM, first compound 0.00316 µM): 104% | viability, T/C (second compound 1 µM, first compound 0.00999 µM): 91.6% | viability, T/C [7]: 98% | viability, T/C (second compound 1 µM, first compound 0.0999 µM): 83.5% | viability, T/C [8]: 81% | viability, T/C (second compound 3.16 µM, first compound 0.000999 µM): 93.9% | viability, T/C (second compound 3.16 µM, first compound 0.00316 µM): 98.5% | viability, T/C (second compound 3.16 µM, first compound 0.00999 µM): 92.1% | viability, T/C [9]: 83% | viability, T/C (second compound 3.16 µM, first compound 0.0999 µM): 82.3% | viability, T/C [10]: 82% | viability, T/C (second compound 10 µM, first compound 0.000999 µM): 87.4% | viability, T/C (second compound 10 µM, first compound 0.00316 µM): 100% | viability, T/C (second compound 10 µM, first compound 0.00999 µM): 93% | viability, T/C [11]: 78.4% | viability, T/C (second compound 10 µM, first compound 0.0999 µM): 82.4% | viability, T/C [12]: 76.1%

O=C(c1cc(Cc2n[nH]c(=O)c3ccccc23)ccc1F)N1CCN(C(=O)C2CC2)CC1 + Cc1[nH]c2ccc(F)cc2c1-c1nc2c3cccnc3c3ncccc3c2[nH]1
pIC50 (second compound 0.0316 µM): < 5.00 | pIC50 (second compound 0.1 µM): < 5.00 | pIC50 (second compound 0.316 µM): < 5.00 | pIC50 (second compound 1 µM): < 5.00 | pIC50 (second compound 3.16 µM): < 5.00 | pIC50 (second compound 10 µM): < 5.00 | viability, T/C [1]: 98.5% | viability, T/C (second compound 0.0316 µM, first compound 0.1 µM): 89.7% | viability, T/C [2]: 101% | viability, T/C (second compound 0.0316 µM, first compound 1 µM): 100% | viability, T/C (second compound 0.0316 µM, first compound 3.16 µM): 79.8% | viability, T/C (second compound 0.0316 µM, first compound 10 µM): 60.8% | viability, T/C [3]: 109% | viability, T/C (second compound 0.1 µM, first compound 0.1 µM): 97.3% | viability, T/C [4]: 93.2% | viability, T/C (second compound 0.1 µM, first compound 1 µM): 94.6% | viability, T/C (second compound 0.1 µM, first compound 3.16 µM): 94.9% | viability, T/C (second compound 0.1 µM, first compound 10 µM): 58.1% | viability, T/C [5]: 97.6% | viability, T/C (second compound 0.316 µM, first compound 0.1 µM): 103% | viability, T/C [6]: 93% | viability, T/C (second compound 0.316 µM, first compound 1 µM): 91.7% | viability, T/C (second compound 0.316 µM, first compound 3.16 µM): 77.6% | viability, T/C (second compound 0.316 µM, first compound 10 µM): 58.1% | viability, T/C [7]: 97.2% | viability, T/C (second compound 1 µM, first compound 0.1 µM): 99.8% | viability, T/C [8]: 87.5% | viability, T/C (second compound 1 µM, first compound 1 µM): 88% | viability, T/C (second compound 1 µM, first compound 3.16 µM): 75.8% | viability, T/C (second compound 1 µM, first compound 10 µM): 65.5% | viability, T/C [9]: 87.4% | viability, T/C (second compound 3.16 µM, first compound 0.1 µM): 107% | viability, T/C [10]: 84% | viability, T/C (second compound 3.16 µM, first compound 1 µM): 87.7% | viability, T/C (second compound 3.16 µM, first compound 3.16 µM): 77.6% | viability, T/C (second compound 3.16 µM, first compound 10 µM): 63.3% | viability, T/C [11]: 94.1% | viability, T/C (second compound 10 µM, first compound 0.1 µM): 81.4% | viability, T/C [12]: 90.9% | viability, T/C (second compound 10 µM, first compound 1 µM): 79.6% | viability, T/C (second compound 10 µM, first compound 3.16 µM): 73.2% | viability, T/C (second compound 10 µM, first compound 10 µM): 61.5%
